Results published in US12649734B2, “Bioavailable protein disulfide isomerase inhibitors” (THE CLEVELAND CLINIC FOUNDATION, priority 2020, dated 2026).

Key:
[1] = system: BTZ-resistant MM1.S cells; assay: Cell viability assay, BTZ-resistant MM1.S; assay type: cell-based, human
Experimental: Cells and reagents: MM1.S-luc-BTZ (BTZ®)-resistant cell line was made in our laboratory. Starting with 1 nM concentration, MM1.S-luc cells were treated with BTZ and exposed continuously for 5 days and removed for 2 days before re-exposure to the drug until the growth of the cells mimicked the parental cell line. Incremental increase of the drug was applied until the concentration of 8 nM was reached. […] BTZ was procured from Millennium Pharmaceuticals Inc. All cell lines that are used in this study and their detailed information are shown in table 1 below.
Cell viability assay: Cell viability was measured in 96 well culture plates (2×10^4 cells/well) using CellTiter-Glo® Luminescent Cell Viability Assay (Promega, Madison, WI, USA) according to the manufacturer's protocol.

[2] = target: PDIA1 (Homo sapiens, UniProt P07237); assay: PDIA1 activity assay, insulin reduction; assay type: biochemical; design: His6 (6xHN, pET6xHN-N vector) (N); made in house; host or cells: Escherichia coli BL21 (DE3) NiCo; conditions: read-out: inactivation constant, Kinact for PDIA1
PDIA1, sequence (P07237 18-508): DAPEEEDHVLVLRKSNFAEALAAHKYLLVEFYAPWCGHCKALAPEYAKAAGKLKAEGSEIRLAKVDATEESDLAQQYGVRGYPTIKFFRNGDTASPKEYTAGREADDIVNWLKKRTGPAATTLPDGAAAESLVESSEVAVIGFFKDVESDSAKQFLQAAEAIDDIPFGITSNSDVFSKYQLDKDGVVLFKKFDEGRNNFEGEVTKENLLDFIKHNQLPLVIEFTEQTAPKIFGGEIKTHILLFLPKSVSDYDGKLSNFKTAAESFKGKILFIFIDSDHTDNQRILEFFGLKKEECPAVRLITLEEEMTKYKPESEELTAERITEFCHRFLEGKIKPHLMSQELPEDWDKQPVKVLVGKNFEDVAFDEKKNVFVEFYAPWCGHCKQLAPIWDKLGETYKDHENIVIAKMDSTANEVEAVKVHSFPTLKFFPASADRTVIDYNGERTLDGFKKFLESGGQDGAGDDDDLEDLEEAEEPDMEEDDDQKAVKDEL
Experimental: PDI activity: All PDI activity assays were performed using two different substrates, insulin and di-eosin-diglutathione (di-E-GSSG) as described earlier (Vatolin et al., Ibid) with brief modifications. PDIA1 (1 μM) was incubated for 1 h with varying concentrations of PDIA1 inhibitors 642 or 642-34 (0.1, 03, 1, 5, 10, or 20 μM) in 100 mM sodium phosphate pH 7.0, 2 mM EDTA, and 1% DMSO. Bovine insulin (100 μM) and DTT (1 mM) were added to initiate the reaction. Kinetic readings were taken every minute for 2 h at 650 nm absorbance using a BioTek Synergy plate reader (BioTek Instruments, Inc., Winooski, VT, USA). For highly sensitive fluorescence-based assays, di-E-GSSG as a pseudo substrate was utilized to access the activity of PDIA1. Raturi, A.; Mutus, B., Free. Radic. Biol. Med., 43, 62-70 (2007) Known concentrations of recombinant PDIA1 were mixed with 10 mM GSH and incubated at 37° C. for 30 min in 150 mM K2HPO4/KH2PO4 (pH 7.1) buffer solution. PDI inhibitor was added into the mixture and incubated for an additional 30 min at 37° C. […] Synergy H1 plate reader (BioTek, WI, USA) was used for kinetic analysis using excitation at 518 nm, emission at 545 nm, reads of 0.1 sec/well every minute at 25° C. for 1 h. Baseline fluorescence was determined from di-E-GSSG reactions without PDI and GSH. […]

[3] = Liver microsome assay; assay type: in vitro ADME; conditions: 0.25 mg/mL human liver microsomes
Experimental: FIGS. 8A & 8B provide graphs showing the stability of CCF642-34 and restriction of multiple myeloma in a syngeneic mouse model by PDIA1-inhibitor CCF642-34. (A) The stability of CCF642-34 was measured against oxidative metabolism by human liver microsomes. CCF642-34 (20 μM) was incubated with 0.25 mg/mL of human liver microsomes for 5 h. The residual compound at indicated time points was measured by HPLC (Agilent 1260 Infinity II) interfaced with reverse phase C18 column using 280 nm and 245 nm detection wavelength. The standard curve of known concentrations of CCF642-34 was obtained from the area under the peak at two wavelengths, and the remaining CCF642-34 was estimated. Data are representative of two independent experiments. […] The survival of each group was monitored, and Kaplan-Meier survival analysis was performed. […]
Liver microsome assay: 20 μM CCF642 or CCF642-34 were incubated with 1 mM NADPH and 0.25 mg/mL human liver microsomes (Sigma, Cat. No: M0567) at 37° C. […] Supernatant was obtained after centrifugation at 15,000 g for 5 min and the remaining compound in supernatant was analyzed by Agilent 1260 Infinity II HPLC with Ultra-violet (UV) detector using Gemini column, […] particle size 150×2 mm (Phenomenex). […] The relative amount of drug at each time point was determined by using the UV peak detection at wavelength 254 and 282 nm. […]

[4] = Stability in acidic conditions (6 N HCl); assay type: physicochemical; conditions: 3 h
Experimental: To evaluate pharmacological properties of CCF642-34, the stability in acidic conditions (6 N HCl) and upon exposure to human liver microsomes was tested. […] It was therefore concluded that CCF642-34 may be orally bioavailable and effective against MM in vivo.

NC(CC1CNc2ccccc21)C(=O)NCCCOc1ccc(N2C(=O)/C(=C/c3ccc([N+](=O)[O-])s3)SC2=S)cc1 (stereo not shown) [CCF642-34]
sensitivity of BTZ-resistant MM1.S compared to parental BTZ-naive MM1.S [1]: ~2 fold | KI (inactivation) [2]: 100 ± 8.5 nM | half-life at 20 µM [3]: > 5 h | compound recovered after exposure to acid [4]: greater than 80%
